The source of these data is paper PMC10381909, “Secondary Metabolites from the Cultures of Medicinal Mushroom Vanderbylia robiniophila and Their Tyrosinase Inhibitory Activities” (Journal of Fungi, 2023).

SMILES strings stand for the structures.

One data set has as its system Aβ1–42. Set-up: method as in PMID 31520649. The note with it: pair of enantiomeric compounds from corn silk; cited from earlier work.
The next data set addresses tyrosinase (Agaricus bisporus, UniProt C7FF04). The experiment in a line: Enzyme kinetic analysis (V-S curve, Lineweaver–Burk plot, secondary replot). Format: biochemical. The protocol: The inhibition type was measured by the reaction rate–substrate concentration curve and the Lineweaver–Burk plot. L-tyrosine solutions were diluted to different concentrations (5 mM, 7.5 mM, 9 mM, 12 mM, 15 mM) as the substate. The inhibition constant was determined by the second plot of the y-intercept versus the concentration of the inhibitor. The values of Kis were calculated from the following formula: y-intercept=1/Vm1+[I]/Kis
The inhibition constant Kis was obtained from the plot of the y-intercept versus the concentration of 10, which was calculated to be 0.04 mM (Figure 5C).

Another data set deals with HeLa cells. Further details: method as in PMID 21747753, PMID 21673896, PMID 31671793. The note with it: obtained from marine-derived fungi; cited from earlier work.

Chain of tyrosinase (C7FF04 1-392): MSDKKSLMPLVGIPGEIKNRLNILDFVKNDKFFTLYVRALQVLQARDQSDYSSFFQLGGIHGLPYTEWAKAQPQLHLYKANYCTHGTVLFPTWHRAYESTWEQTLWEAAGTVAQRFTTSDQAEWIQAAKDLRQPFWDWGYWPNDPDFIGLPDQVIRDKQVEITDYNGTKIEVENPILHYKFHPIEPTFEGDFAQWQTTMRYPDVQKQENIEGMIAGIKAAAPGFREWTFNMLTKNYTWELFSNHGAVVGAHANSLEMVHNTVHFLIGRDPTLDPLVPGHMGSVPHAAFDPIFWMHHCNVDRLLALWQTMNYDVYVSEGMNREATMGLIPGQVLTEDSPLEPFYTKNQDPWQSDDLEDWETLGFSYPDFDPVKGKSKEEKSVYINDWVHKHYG

On to `COC(=O)CCCCCCC[C@H]1C=CC(=O)O1` [Compound 9, Cornilkone C], for which the “anti-Aβ1–42 aggregation activity” value with Aβ1–42 is given as “weak”.

In the case of `COC(=O)C(=O)c1c[nH]c2ccccc12` [Compound 10, (1H-indol-3-yl) oxoacetic acid methyl ester], the “inhibition type on tyrosinase” value against tyrosinase (L-tyrosine 5–15 mM, Lineweaver–Burk plot) is reported as “uncompetitive inhibitor”. Besides, the “change of Km and Vm with increasing inhibitor concentration” value at tyrosinase (ratio Km/Vm remained unchanged) is on record as “decreased”. Also, the “cytotoxic activity against HeLa cells” value in the data set with HeLa cells is given as “weak”.
